Results reported in PMC11191095, “QSAR Reveals Decreased Lipophilicity of Polar Residues Determines the Selectivity of Antimicrobial Peptide Activity” (ACS Omega, 2024).
Where a SMILES comes first, the peptide text is derived from it.

Experiments:
[1] = test system: HaCat cell line; assay: In vitro HaCat cytotoxicity (MTT); format: cell-based, human; conditions: 21 h exposure, OD570, relative to untreated control
Description: The HaCat cell line (Cellonex, South Africa) was cultured in Dulbecco’s Modified Eagle Medium (DMEM) supplemented with 10% heat-inactivated fetal calf serum (FCS) and 1% antibiotic-antimycotic (Abs) and maintained at 5–10% CO2, 37 °C, 95% humidity. For cytotoxicity screening, 5.56 × 10^4 cells/mL were plated in a 96-well plate. After 24 h incubation, the cells are initially exposed to each peptide at a concentration of 256 μg/mL or 0.1% Triton-X-100 as the control for 21 h. If cytotoxicity was observed, at a level of significance of p < 0.0001 compared with the untreated control after 21 h, a dose-response assay was undertaken. Cell viability was determined by adding 10% 3-(4,5-dimethyl-2-thiazolyl)-2,5-diphenyl-2H-tetrazolium bromide (MTT) (1 mg/mL), to each well and after a further 3 h incubation the media was discarded, and the formazan crystals dissolved by adding 25% DMSO in ethanol. The absorbance was measured at OD570 by using the FLUOstar Omega multidetection microplate reader (BMG Labtech). Percentage cell viability was calculated relative to the untreated control. The LC50 was defined as the concentration of AMP treatment that results in 50% lethality of HaCat cells and was determined from the dose-response curves.

[2] = test system: A. baumannii ATCC 17978; assay: microbe, parasite or virus in culture; format: cell-based, Acinetobacter baumannii; conditions: A. baumannii ATCC 17978 (S); shown in µM
Method in brief: (§1)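 Peptides 128→2 μg/mL, 2-fold series; inoculum ~5 × 10^5 CFU/mL from overnight culture (OD600 0.01, mixed 1:1). MHB non-cation-adjusted for bacteria, RPMI 1640 + 2% glucose for fungi. 37 °C, 20 h, OD600. MIC50/MIC90 at 50%/90% inhibition; n ≥ 3.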

[3] = test system: A. baumannii AYE; assay: microbe, parasite or virus in culture; format: cell-based, Acinetobacter baumannii; conditions: A. baumannii AYE (R); shown in µM
Method in brief: as §1

[4] = test system: S. aureus (MSSA) ATCC 9144; assay: microbe, parasite or virus in culture; format: cell-based, Staphylococcus aureus; conditions: S. aureus (MSSA) ATCC 9144 (S); shown in µM
Method in brief: as §1

[5] = test system: S. aureus (MRSA) USA300; assay: microbe, parasite or virus in culture; format: cell-based, Staphylococcus aureus; conditions: S. aureus (MRSA) USA300 (R); shown in µM
Method in brief: as §1

[6] = test system: S. aureus (MRSA) 1199B; assay: microbe, parasite or virus in culture; format: cell-based, Staphylococcus aureus; conditions: S. aureus (MRSA) 1199B (R); shown in µM
Method in brief: as §1

[7] = test system: S. aureus (MRSA) NCTC 13616; assay: microbe, parasite or virus in culture; format: cell-based, Staphylococcus aureus; conditions: S. aureus (MRSA) NCTC 13616 (R); shown in µM
Method in brief: as §1

[8] = test system: C. parapsilosis NCPF 3209; assay: microbe, parasite or virus in culture; format: cell-based; conditions: C. parapsilosis NCPF 3209; shown in µM
Method in brief: as §1

[9] = test system: C. tropicalis NCPF 8760; assay: microbe, parasite or virus in culture; format: cell-based; conditions: C. tropicalis NCPF 8760; shown in µM
Method in brief: as §1

[10] = test system: C. glabrata NCPF 8018; assay: microbe, parasite or virus in culture; format: cell-based; conditions: C. glabrata NCPF 8018
Method in brief: as §1

[11] = test system: C. albicans NCPF 3281; assay: microbe, parasite or virus in culture; format: cell-based; conditions: C. albicans NCPF 3281; shown in µM
Method in brief: as §1

[12] = test system: C. krusei NCPF 3876; assay: microbe, parasite or virus in culture; format: cell-based; conditions: C. krusei NCPF 3876; shown in µM
Method in brief: as §1

[13] = test system: P. aeruginosa NCTC 13437; assay: microbe, parasite or virus in culture; format: cell-based, Pseudomonas aeruginosa; conditions: P. aeruginosa NCTC 13437 (R); shown in µM
Method in brief: as §1

[14] = test system: P. aeruginosa PAO1; assay: microbe, parasite or virus in culture; format: cell-based, Pseudomonas aeruginosa; conditions: P. aeruginosa PAO1 (S)
Method in brief: as §1

[15] = test system: human erythrocytes; assay: In vitro hemolytic activity; format: cell-based; conditions: human erythrocytes in PBS, 1 h, 37 °C, OD550, from dose response curves
Description: Potential erythrocyte hemolysis was tested by incubating serial dilutions of the AMPs in PBS with freshly collected erythrocytes at a ratio of 1:1 in 96-well polypropylene V-shape plates for 1 h at 37 °C. Control wells were treated with 0.1% Triton-X-100 to ensure complete lysis or PBS-only to represent no lysis. The erythrocytes were collected by centrifugation and the OD550 of the supernatant was measured using a plate reader. The percentage hemolysis was calculated as [drawing 1] 1 where Apeptide is the absorbance value of erythrocytes exposed to a known peptide concentration, Agrowth control is the absorbance of erythrocytes exposed to 0.1% Triton-X-100 and Ablank is the absorbance of erythrocytes exposed to the PBS. The concentrations at which a peptide caused 10% (HC10) and 50% (HC50) hemolysis was determined from the dose response curves.

[16] = test system: E. coli NCTC 12923; assay: microbe, parasite or virus in culture; format: cell-based, Escherichia coli; conditions: E. coli NCTC 12923 (S); shown in µM
Method in brief: as §1

[17] = test system: E. coli LEC001; assay: microbe, parasite or virus in culture; format: cell-based, Escherichia coli; conditions: E. coli LEC001 (R); shown in µM
Method in brief: as §1

[18] = test system: K. pneumoniae M6; assay: microbe, parasite or virus in culture; format: cell-based, Klebsiella pneumoniae; conditions: K. pneumoniae M6 (S); shown in µM
Method in brief: as §1

[19] = test system: K. pneumoniae NCTC 13368; assay: microbe, parasite or virus in culture; format: cell-based, Klebsiella pneumoniae; conditions: K. pneumoniae NCTC 13368 (R); shown in µM
Method in brief: as §1

[20] = test system: C. auris TDG 1912; assay: microbe, parasite or virus in culture; format: cell-based, Candida auris; conditions: C. auris TDG 1912
Method in brief: as §1

[21] = 50% growth inhibition, RPMI 1640 + 2% glucose, 37 °C, 20 h, OD600
[22] = 90% growth inhibition, RPMI 1640 + 2% glucose, 37 °C, 20 h, OD600

Compound	% HaCat cell death at initial screening (256μg/mL) ± SD [1]	Modal MIC [2]	Modal MIC [3]	Modal MIC [4]	Modal MIC [5]	Modal MIC [6]	Modal MIC [7]	Modal MIC50 [8]	Modal MIC90 [8]	Modal MIC50 [9]	Modal MIC90 [9]	Modal MIC50 ([10]; shown in µM)	Modal MIC90 ([10]; shown in µM)	Modal MIC50 [11]	Modal MIC90 [11]	Modal MIC50 [12]	Modal MIC90 [12]	Modal MIC [13]	HC10 (concentration causing 10% hemolysis) [15]	HC50 (concentration causing 50% hemolysis) [15]	further results
CC[C@H](C)[C@H](NC(=O)[C@H](C)NC(=O)[C@H](CCCCN)NC(=O)[C@@H]1CCCN1C(=O)[C@@H](NC(=O)[C@H](CC(C)C)NC(=O)[C@H](CO)NC(=O)[C@H](Cc1ccccc1)NC(=O)[C@H](CC(C)C)NC(=O)[C@@H](N)Cc1ccccc1)[C@@H](C)CC)C(=O)NCC(=O)NCC(=O)N[C@@H](CC(C)C)C(=O)N[C@H](C(=O)N[C@@H](CO)C(=O)N[C@@H](C)C(=O)N[C@@H](Cc1ccccc1)C(=O)N[C@@H](CCCCN)C(N)=O)[C@@H](C)CC [AamAP-S1a]	97.6 ±12.6%	4.1 µM	4.1 µM	2 µM	4.1 µM	2 µM	4.1 µM	64.8 µM	64.8 µM	8.1 µM	8.1 µM	> 64.8 µM	> 64.8 µM	64.8 µM	64.8 µM	32.4 µM	32.4 µM	64.8 µM	45 µg/mL	112 µg/mL	Modal MIC50 ([10]; 50% growth inhibition, RPMI 1640 + 2% glucose, 37 °C, 20 h): > 128 µg/mL; Modal MIC90 ([10]; 90% growth inhibition, RPMI 1640 + 2% glucose, 37 °C, 20 h): > 128 µg/mL; Modal MIC ([14]; MHB, 37 °C, 20 h, OD600, min. three biological repeats): > 128 µg/mL; Modal MIC ([14]; shown in µM): > 64.8 µM; HC50 (concentration causing 50% hemolysis) ([15]; listed as AamAP1-S1a): lower than 256 µg/mL; Modal MIC [16]: 8.1 µM; Modal MIC [17]: 8.1 µM; Modal MIC [18]: 32.4 µM; Modal MIC [19]: 32.4 µM; Modal MIC50 [20, 21]: > 128 µg/mL; Modal MIC90 [20, 22]: > 128 µg/mL; Modal MIC50 ([20]; shown in µM): > 64.8 µM; Modal MIC90 ([20]; shown in µM): > 64.8 µM
CC[C@H](C)[C@H](NC(=O)[C@H](C)NC(=O)[C@H](CCCCN)NC(=O)[C@@H]1CCCN1C(=O)[C@@H](NC(=O)[C@H](CC(C)C)NC(=O)[C@H](CCCCN)NC(=O)[C@H](Cc1ccccc1)NC(=O)[C@H](CC(C)C)NC(=O)[C@@H](N)Cc1ccccc1)[C@@H](C)CC)C(=O)N[C@@H](CCCCN)C(=O)N[C@@H](CCCCN)C(=O)N[C@@H](CC(C)C)C(=O)N[C@H](C(=O)N[C@@H](CO)C(=O)N[C@@H](CCCCN)C(=O)N[C@@H](Cc1ccccc1)C(=O)N[C@@H](CCCCN)C(N)=O)[C@@H](C)CC [AamAP1-Lysa] (H-FLFKLIPKAIKKLISKFK-NH2)	94.8 ± 8.2%	0.9 µM	1.8 µM	1.8 µM	1.8 µM	1.8 µM	0.9 µM	14.4 µM	14.4 µM	0.9 µM	0.9 µM	57.8 µM	57.8 µM	14.4 µM	28.8 µM	7.2 µM	7.2 µM	7.2 µM	53 µg/mL	256 µg/mL	Modal MIC ([14]; shown in µM): 7.2 µM; Modal MIC [16]: 1.8 µM; Modal MIC [17]: 3.6 µM; Modal MIC [18]: 3.6 µM; Modal MIC [19]: 3.6 µM; Modal MIC50 [20, 21]: > 128 µg/mL; Modal MIC90 [20, 22]: > 128 µg/mL; Modal MIC50 ([20]; shown in µM): > 57.8 µM; Modal MIC90 ([20]; shown in µM): > 57.8 µM
CC[C@H](C)[C@H](NC(=O)[C@H](C)NC(=O)[C@H](CCCCN)NC(=O)[C@H](CCCNC(=N)N)NC(=O)[C@@H](NC(=O)[C@H](CC(C)C)NC(=O)[C@H](CO)NC(=O)[C@H](Cc1ccccc1)NC(=O)[C@H](CC(C)C)NC(=O)[C@@H](N)Cc1ccccc1)[C@@H](C)CC)C(=O)NCC(=O)NCC(=O)N[C@@H](CC(C)C)C(=O)N[C@H](C(=O)N[C@@H](CO)C(=O)N[C@@H](C)C(=O)N[C@@H](Cc1ccccc1)C(=O)N[C@@H](CCCCN)C(=O)O)[C@@H](C)CC [A3]	100 ± 9.7%																		9 µg/mL		
CC[C@H](C)[C@H](NC(=O)[C@H](C)NC(=O)[C@H](CCCCN)NC(=O)[C@@H]1CCCN1C(=O)[C@@H](NC(=O)[C@H](CC(C)C)NC(=O)[C@H](CO)NC(=O)[C@H](Cc1ccccc1)NC(=O)[C@H](CC(C)C)NC(=O)[C@@H](N)Cc1ccccc1)[C@@H](C)CC)C(=O)NCC(=O)NCC(=O)N[C@@H](CC(C)C)C(=O)N[C@H](C(=O)N[C@@H](CO)C(=O)N[C@@H](C)C(=O)N[C@@H](Cc1ccccc1)C(=O)N[C@@H](CCCCN)C(=O)O)[C@@H](C)CC [AamAP-S1]	85 ±17.9%																		128 µg/mL	195 µg/mL	
